# Measured values published in patent US7544666B2, “NAP derivatives” (Industrial Technology Research Institute, priority 2005, dated 2009).
# Where a SMILES comes first, the peptide text is derived from it. Bridges are numbered along the chain shown (N, C = ends).
# Key:
# [1] = Stability in Hanks' balanced salt solution (HBSS); format: physicochemical; conditions: 37° C., relative to initial conc. in HBSS = 100.00
# Description: (§1) The stability of the NAP derivatives prepared by EXAMPLE 1 was measured with the system of human colon cancer cell, Caco-2 cell. Caco-2 cells (1×10^5 cells) were first seeded into a polycarbonate film on the upper layer of a 12-well Transwell and incubated for 18 to 26 days at 37° C. The TEER of the Caco-2 cell monolayer was measured over 350 Ω×cm^2. The stability of the NAP derivatives in the Hanks' balanced salt solutions (HBSS) was measured by the concentration changes of NAP and the NAP derivatives incubated in the HBSS at 37° C. for 4 hours. The stability of the NAP derivatives in the Caco-2 cell system was measured by the procedure described below. NAP and the NAP derivatives in the HBSS were added into the upper layer of the Caco-2 cell-seeded Transwell. After 4-hour incubation, the concentration of NAP and the NAP derivatives in the upper and lower layers was measured and analyzed in comparison with the initial concentration (500 μM) by reverse HPLC at 210 nm.
# Caco-2 cell = assay: Stability in the Caco-2 cell system; format: in vitro ADME, human; conditions: 4-hour incubation in Caco-2 Transwell; relative to initial conc. = 100.00 (500 μM)
# Description: as §1
# Caco-2 cell monolayer = assay: Permeation to Caco-2 cell monolayer; format: in vitro ADME, human; set-up: unit not given here; conditions: 4-hour incubation, initial concentration 500 μM in upper layer
# Description: The permeation of NAP and the NAP derivatives was examined using the Caco-2 cell system. Caco-2 cells (1×10^5 cells) were seeded into the polycarbonate film on the upper layer of a 12-well Transwell and incubated at 37° C. for 18 to 26 days. The TEER of the Caco cell monolayer was measured over 350 Ω×cm^2. NAP and the NAP derivatives in the HBSS were added into the upper layer of the Caco-2 cell-seeded Transwell. After 4-hour incubation, the concentration of NAP and the NAP derivatives in the upper and lower layers was measured and analyzed in comparison with the initial concentration (500 μM) by reverse phase HPLC at 210 nm.
Molecule,Conc. after 4-hour in HBSS [1],Conc. after 4-hour in Caco-2 cells (Caco-2 cell),Conc. at the lover layer (Caco-2 cell monolayer)
"H-NAPISIPAN-OH [BMEC-NAP0608, H-NAPISIPAN-OH]",110.89,30.58,
"CCCCCCOC(=O)N[C@@H](CC(N)=O)C(=O)N[C@@H](C)C(=O)N1CCC[C@H]1C(=O)N[C@H](C(=O)N[C@@H](CO)C(=O)N[C@H](C(=O)N1CCC[C@H]1C(=O)N[C@@H](CCC(N)=O)C(=O)O)[C@@H](C)CC)C(C)C [BMEC-NAP0404, nHex-OCO-NAPVSIPQ-OH]",99.16,29.87,2.00
"CCCC(=O)N[C@@H](CC(N)=O)C(=O)N[C@@H](C)C(=O)N1CCC[C@H]1C(=O)N[C@H](C(=O)N[C@@H](CO)C(=O)N[C@H](C(=O)N1CCC[C@H]1C(=O)N[C@@H](CCC(N)=O)C(=O)O)[C@@H](C)CC)C(C)C [BMEC-NAP0101, Butyryl-NAPVSIPQ-OH]",97.76,56.02,
CC[C@H](C)[C@@H]1NC(=O)[C@H](CO)NC(=O)[C@H](C(C)C)NC(=O)[C@@H]2CCCN2C(=O)[C@H](C)NC(=O)[C@H](CC(N)=O)NC(=O)[C@@H](N)CSSC[C@@H](C(=O)O)NC(=O)[C@H](CCC(N)=O)NC(=O)[C@@H]2CCCN2C1=O [BMEC-NAP0302] (H-CNAPVSIPQC-OH; disulfide 1-10; N-terminus and C-terminus assumed),,81.33,1.28
"CCCCCCC(=O)N[C@@H](CC(N)=O)C(=O)N[C@@H](C)C(=O)N1CCC[C@H]1C(=O)N[C@H](C(=O)N[C@@H](CO)C(=O)N[C@H](C(=O)N1CCC[C@H]1C(=O)N[C@@H](CCC(N)=O)C(=O)O)[C@@H](C)CC)C(C)C [BMEC-NAP0106, C6H13CO-NAPVSIPQ-OH]",102.05,26.74,
"CCCCC(CC)COC(=O)N[C@@H](CC(N)=O)C(=O)N[C@@H](C)C(=O)N1CCC[C@H]1C(=O)N[C@H](C(=O)N[C@@H](CO)C(=O)N[C@H](C(=O)N1CCC[C@H]1C(=O)N[C@@H](CCC(N)=O)C(=O)O)[C@@H](C)CC)C(C)C (stereo partly shown) [BMEC-NAP0402, iOct-OCO-NAPVSIPQ-OH]",,18.92,2.02
Adipyl-NAPVSIPQ-NH2 [BMEC-NAP0202],98.38,95.59,0.82
"CCCCC(=O)N[C@@H](CC(N)=O)C(=O)N[C@@H](C)C(=O)N1CCC[C@H]1C(=O)N[C@H](C(=O)N[C@@H](CO)C(=O)N[C@H](C(=O)N1CCC[C@H]1C(=O)N[C@@H](CCC(N)=O)C(=O)O)[C@@H](C)CC)C(C)C [BMEC-NAP0105, C4H9CO-NAPVSIPQ-OH]",98.36,49.86,
Adipyl-NAPVSIPQ-OH [BMEC-NAP0102],99.95,60.72,
"CCCCCCCCOC(=O)N[C@@H](CC(N)=O)C(=O)N[C@@H](C)C(=O)N1CCC[C@H]1C(=O)N[C@H](C(=O)N[C@@H](CO)C(=O)N[C@H](C(=O)N1CCC[C@H]1C(=O)N[C@@H](CCC(N)=O)C(=O)O)[C@@H](C)CC)C(C)C [BMEC-NAP0405, nOct-OCO-NAPVSIPQ-OH]",99.66,17.11,
"CCCCCCCCC(=O)N[C@@H](CC(N)=O)C(=O)N[C@@H](C)C(=O)N1CCC[C@H]1C(=O)N[C@H](C(=O)N[C@@H](CO)C(=O)N[C@H](C(=O)N1CCC[C@H]1C(=O)N[C@@H](CCC(N)=O)C(=O)O)[C@@H](C)CC)C(C)C [BMEC-NAP0107, C8H17CO-NAPVSIPQ-OH]",98.74,24.21,
"CCCCOC(=O)N[C@@H](CC(N)=O)C(=O)N[C@@H](C)C(=O)N1CCC[C@H]1C(=O)N[C@H](C(=O)N[C@@H](CO)C(=O)N[C@H](C(=O)N1CCC[C@H]1C(=O)N[C@@H](CCC(N)=O)C(=O)O)[C@@H](C)CC)C(C)C [BMEC-NAP0403, nBu-OCO-NAPVSIPQ-OH]",98.49,29.05,

# The next lines start with the values.
Conc. after 4-hour in HBSS [1],Conc. after 4-hour in Caco-2 cells (Caco-2 cell),Conc. at the lover layer (Caco-2 cell monolayer),Molecule
99.42,11.54,,"H-NAPVSLPQ-OH [BMEC-NAP0606, H-NAPVSLPQ-OH]"
101.90,29.17,0.04,"H-NAPVSIPN-OH [BMEC-NAP0603, H-NAPVSIPN-OH]"
104.25,27.76,,"H-NAPVSVPQ-OH [BMEC-NAP0605, H-NAPVSVPQ-OH]"
98.58,89.54,0.27,"CC[C@H](C)[C@H](NC(=O)[C@H](CO)NC(=O)[C@@H](NC(=O)[C@@H]1CCCN1C(=O)[C@H](C)NC(=O)[C@H](CC(N)=O)NC(=O)OCc1ccccc1)C(C)C)C(=O)N1CCC[C@H]1C(=O)N[C@@H](CCC(N)=O)C(N)=O [BMEC-NAP0805, Cbz-NAPVSIPQ-NH2]"
98.80,94.19,,"CC[C@H](C)[C@H](NC(=O)[C@H](COP(=O)(O)O)NC(=O)[C@@H](NC(=O)[C@@H]1CCCN1C(=O)[C@H](C)NC(=O)[C@@H](N)CC(N)=O)C(C)C)C(=O)N1CCC[C@H]1C(=O)N[C@@H](CCC(N)=O)C(=O)O [BMEC-NAP9902, NH2-NAPVS(OPO3H2)IPQ-OH]"
99.77,85.89,0.60,"CCCCOC(=O)N[C@@H](CC(N)=O)C(=O)N[C@@H](C)C(=O)N1CCC[C@H]1C(=O)N[C@H](C(=O)N[C@@H](CO)C(=O)N[C@H](C(=O)N1CCC[C@H]1C(=O)N[C@@H](CCC(N)=O)C(N)=O)[C@@H](C)CC)C(C)C [BMEC-NAP0503, nBu-OCO-NAPVSIPQ-NH2]"
,82.37,1.39,"CCCCC(CC)COC(=O)N[C@@H](CC(N)=O)C(=O)N[C@@H](C)C(=O)N1CCC[C@H]1C(=O)N[C@H](C(=O)N[C@@H](CO)C(=O)N[C@H](C(=O)N1CCC[C@H]1C(=O)N[C@@H](CCC(N)=O)C(N)=O)[C@@H](C)CC)C(C)C (stereo partly shown) [BMEC-NAP0502, iOct-OCO-NAPVSIPQ-NH2]"
100.00,76.24,,"CC[C@H](C)[C@H](NC(=O)[C@H](CO)NC(=O)[C@@H](NC(=O)[C@@H]1CCCN1C(=O)[C@H](C)NC(=O)[C@H](CC(N)=O)NC(=O)OCC1c2ccccc2-c2ccccc21)C(C)C)C(=O)N1CCC[C@H]1C(=O)N[C@@H](CCC(N)=O)C(N)=O [BMEC-NAP0806, Fmoc-NAPVSIPQ-NH2]"
104.94,21.81,,"H-QAPVSIPQ-OH [BMEC-NAP0602, H-QAPVSIPQ-OH]"
99.88,73.69,0.24,"CC[C@H](C)[C@H](NC(=O)[C@H](CO)NC(=O)[C@@H](NC(=O)[C@@H]1CCCN1C(=O)[C@H](C)NC(=O)[C@H](CC(N)=O)NC(=O)c1cccs1)C(C)C)C(=O)N1CCC[C@H]1C(=O)N[C@@H](CCC(N)=O)C(=O)O [BMEC-NAP0704, 2-Thiophenecarbonyl-NAPVSIPQ-OH]"
,,0.07,"H-NAPVSIPAQ-OH [BMEC-NAP0601, H-NAPVSIPAQ-OH]"
95.73,88.79,,"CC[C@H](C)[C@H](NC(=O)[C@H](CO)NC(=O)[C@@H](NC(=O)[C@@H]1CCCN1C(=O)[C@H](C)NC(=O)[C@H](CC(N)=O)NC(=O)c1ccc(-c2ccccc2)cc1)C(C)C)C(=O)N1CCC[C@H]1C(=O)N[C@@H](CCC(N)=O)C(=O)O [BMEC-NAP0703, 4-Phenylbenzoyl-NAPVSIPQ-OH]"
97.33,16.54,,"H-QAPVSVPAQ-OH [BMEC-NAP0607, H-QAPVSVPAQ-OH]"
130.04,97.75,,"CCCCCCCCCCCCOC(=O)N[C@@H](CC(N)=O)C(=O)N[C@@H](C)C(=O)N1CCC[C@H]1C(=O)N[C@H](C(=O)N[C@@H](CO)C(=O)N[C@H](C(=O)N1CCC[C@H]1C(=O)N[C@@H](CCC(N)=O)C(=O)O)[C@@H](C)CC)C(C)C [BMEC-NAP0406, nDod-OCO-NAPVSIPQ-OH]"
103.83,23.89,,"H-NAPISIPQ-OH [BMEC-NAP0604, H-NAPISIPQ-OH]"
,81.63,0.77,"CC[C@H](C)[C@H](NC(=O)[C@H](CO)NC(=O)[C@@H](NC(=O)[C@@H]1CCCN1C(=O)[C@H](C)NC(=O)[C@H](CC(N)=O)NC(=O)c1ccc2c(c1)C(=O)OC21c2ccc(O)cc2Oc2cc(O)ccc21)C(C)C)C(=O)N1CCC[C@H]1C(=O)N[C@@H](CCC(N)=O)C(=O)O [BMEC-NAP9901, 5(6)FAM-NAPVSIPQ-OH]"
